The subject of one assay is Z-138 cell line. As to the kind of experiment: Z-138 Proliferation Assay (Cell Titer Glo, 5 days). The assay is classed as cell-based. Particulars: Homo sapiens, 120 h; Z-138 cells, 5 days; read-out: Proliferation EC50. The text has this: RPMI/Glutamax medium, penicillin-streptomycin, heat inactivated fetal bovine serum were purchased from Life Technologies, Grand Island, N.Y., USA. V-bottom polypropylene 384-well plates were purchased from Greiner Bio-One, Monroe, N.C., USA. Cell culture 384-well white opaque plates were purchased from Perkin Elmer, Waltham, Mass., USA. Cell-Titer Glo® was purchased from Promega Corporation, Madison, Wis., USA. SpectraMax M5 plate reader was purchased from Molecular Devices LLC, Sunnyvale, Calif., USA.
A compound source plate was prepared by performing triplicate nine-point 3-fold serial dilutions in DMSO, beginning at 10 mM (final top concentration of compound in the assay was 20 μM and the DMSO was 0.2%). A 100 nL aliquot from the compound stock plate was added to its respective well in the cell plate. […] After addition of compounds, assay plates were incubated for 5 days at 37° C., 5% CO2, relative humidity >90%.
Cell viability was measured by quantitation of ATP present in the cell cultures, adding […] of Cell Titer Glo® reagent to the cell plates. Luminescence was read in the SpectraMax M5 microplate reader. The concentration of compound inhibiting cell viability by 50% was determined using a 4-parametric fit of the normalized dose response curves.

Assay [1] relates to symmetric di-methyl arginine in Z-138 cells. Description: Z-138 Methylation Assay (In Cell Western for symmetric di-methyl arginine and DNA content). The assay is classed as cell-based. As to conditions: Homo sapiens, read-out: ICW EC50. An excerpt:
[formula] [formula] Where top and bottom are the normally allowed to float, but may be fixed at 100 or 0 respectively in a 3-parameter fit. The Hill Coefficient normally allowed to float but may also be fixed at 1 in a 3-parameter fit. Y is the % inhibition and X is the compound concentration.
RPMI/Glutamax medium, penicillin-streptomycin, heat inactivated fetal bovine serum, and D-PBS were purchased from Life Technologies, Grand Island, N.Y., USA. Odyssey blocking buffer, 800CW goat anti-rabbit IgG (H+L) antibody, and Licor Odyssey infrared scanner were purchased from Licor Biosciences, Lincoln, Nebr., USA. Symmetric di-methyl arginine antibody was purchased from EMD Millipore, Billerica, Mass., USA. 16% Paraformaldehyde was purchased from Electron Microscopy Sciences, Hatfield, Pa., USA.
Cell Treatment, in Cell Western (ICW) for Detection of Symmetric Di-Methyl Arginine and DNA Content.
Z-138 cells were seeded in assay medium at a concentration of 50,000 cells per mL to a 384-well cell culture plate with 50 μL per well. Compound (100 nL) from 384 well source plates was added directly to 384 well cell plate. Plates were incubated at 37° C., 5% CO2 for 96 hours. […] Plates were incubated at room temperature for 30 minutes then incubated at 37° C., 5% CO2 for 5 hours. After the incubation, 40 μL per well of 8% paraformaldehyde in PBS (16% paraformaldahyde was diluted to 8% in PBS) was added to each plate and incubated for 30 minutes. […] Next 30 μL per well of Odyssey blocking buffer were added to each plate and incubated 1 hour at room temperature. Blocking buffer was removed and 20 μL per well of primary antibody was added (symmetric di-methyl arginine diluted 1:100 in Odyssey buffer with 0.1% Tween 20 (v/v)) and plates were incubated overnight (16 hours) at 4° C. Plates were washed 5 times with 100 μL per well of wash buffer. Next 20 μL per well of secondary antibody was added (1:200 800CW goat anti-rabbit IgG (H+L) antibody, 1:1000 DRAQ5 (Biostatus limited) in Odyssey buffer with 0.1% Tween 20 (v/v)) and incubated for 1 hour at room temperature. The plates were washed 5 times with 100 μL per well wash buffer then 1 time with 100 μL per well of water. Plates were allowed to dry at room temperature then imaged on the Licor Odyssey machine which measures integrated intensity at 700 nm and 800 nm wavelengths. Both 700 and 800 channels were scanned.
First, the ratio for each well was determined by:
Each plate included fourteen control wells of DMSO only treatment (minimum inhibition) as well as fourteen control wells for maximum inhibition treated with 3 μM of a reference compound (Background wells). The average of the ratio values for each control type was calculated and used to determine the percent inhibition for each test well in the plate. Reference compound was serially diluted three-fold in DMSO for a total of nine test concentrations, beginning at 3 μM. Percent inhibition was determined and IC50 curves were generated using triplicate wells per concentration of compound. Percent Inhibition=100−

Structures are written as SMILES. Some results are limits rather than exact numbers.

As to `CN1CCC(c2cccc(C(=O)NCC(O)CN3CCc4ccccc4C3)c2)C1` (stereo not shown) [Compound 38, N-(3-(3,4-dihydroisoquinolin-2(1H)-yl)-2-hydroxypropyl)-3-(1-methylpyrrolidin-3-yl)benzamide], the values for the EC50 (in the assay with Z-138 cell line; in assay [1]) were 10000 to 50000 nM and 101 to 1000 nM, respectively.
For `Cc1c(NC2CCOCC2)cccc1C(=O)NCC(O)CN1CCc2ccccc2C1` (stereo not shown) [Compound 40, N-(3-(3,4-dihydroisoquinolin-2(1H)-yl)-2-hydroxypropyl)-2-methyl-3-((tetrahydro-2H-pyran-4-yl)amino)benzamide] the same measures were 1000 to 10000 nM and < 100 nM.
For `CCN(c1cccc(C(=O)NCC(O)CN2CCc3ccccc3C2)c1C)C1CCOCC1` (stereo not shown) [Compound 41] the same measures were 1000 to 10000 nM and < 100 nM.
For `O=C(NC[C@@H](O)CN1CCc2ccccc2C1)c1cccc(NC2CCOCC2)c1` [Compound 43] the same measures were 1000 to 10000 nM and 101 to 1000 nM.
For the compound `O=C(NCC(O)CN1CCc2ccccc2C1)c1cccc(CC2CCOCC2)c1` (stereo not shown) [Compound 59], the EC50 in the assay with Z-138 cell line is 101 to 1000 nM; in assay [1] it was < 100 nM.
For `O=C(NCC(O)CN1CCc2ccccc2C1)c1cccc(NC2CCCOC2)c1` (stereo not shown) [Compound 60] the same measures were 1000 to 10000 nM and 101 to 1000 nM.
The matching figures for `O=C(NCC(O)CN1CCc2ccccc2C1)c1ccnc(NC2CCOCC2)n1` (stereo not shown) [Compound 62]: 10000 to 50000 nM and 101 to 1000 nM.
For `O=C(NCC(O)CN1CCc2ccccc2C1)c1cc(NC2CCOCC2)ncn1` (stereo not shown) [Compound 63], the EC50 in the assay with Z-138 cell line is 101 to 1000 nM; in assay [1] it was < 100 nM.
For `O=C(NCC(O)CN1CCc2ccccc2C1)c1cc(Cl)cc(NC2CCOCC2)c1` (stereo not shown) [Compound 64] the same measures were 1000 to 10000 nM and 101 to 1000 nM.
Regarding `O=C(NCC(O)CN1CCc2ccccc2C1)c1ccc(F)c(NC2CCOCC2)c1` (stereo not shown) [Compound 65], the figures for the EC50 (in the assay with Z-138 cell line; in assay [1]) were 1000 to 10000 nM and < 100 nM, respectively.
The matching figures for `O=C(NCC(O)CN1CCc2ccccc2C1)c1ccc(NC2CCOCC2)cc1` (stereo not shown) [Compound 66]: 1000 to 10000 nM and 101 to 1000 nM.
For `COc1ccc(C(=O)NCC(O)CN2CCc3ccccc3C2)cc1NC1CCOCC1` (stereo not shown) [Compound 67] the same measures were 10000 to 50000 nM and 101 to 1000 nM.
With `O=C(NCC(O)CN1CCc2ccccc2C1)c1ccc2ncccc2c1` (stereo not shown) [Compound 68], the values for the EC50 (in the assay with Z-138 cell line; in assay [1]) were 1000 to 10000 nM and < 100 nM, respectively.
The matching figures for `COCCCNc1cccc(C(=O)NCC(O)CN2CCc3ccccc3C2)c1` (stereo not shown) [Compound 69]: > 20000 nM and 1000 to 10000 nM.
For `CN(CC(O)CN1CCc2ccccc2C1)C(=O)c1cccc(NC2CCOCC2)c1` (stereo not shown) [Compound 71] the same measures were 1000 to 10000 nM and 101 to 1000 nM.
The matching figures for `O=C(NCC(O)CN1CCc2ccccc2C1)c1cccc(NC2CCOCC2)n1` (stereo not shown) [Compound 73]: 1000 to 10000 nM and < 100 nM.
`O=C(NCC(O)CN1CCc2ccccc2C1)c1ccnc(NC2CCOCC2)c1` (stereo not shown) [Compound 74]: the results for the EC50 (in the assay with Z-138 cell line; in assay [1]) were 101 to 1000 nM and < 100 nM, respectively.
The matching figures for `COc1ccc(NC2CCOCC2)cc1C(=O)NCC(O)CN1CCc2ccccc2C1` (stereo not shown) [Compound 77]: 1000 to 10000 nM and 101 to 1000 nM.
Consider `O=C(NCC(O)CN1CCc2ccccc2C1)c1cc(F)cc(NC2CCOCC2)c1` (stereo not shown) [Compound 78], for which the EC50 was 101 to 1000 nM with Z-138 cell line and < 100 nM in assay [1].
Take `O=C(NCC(O)CN1CCc2ccccc2C1)c1cccc(NC2CCOCC2)c1F` (stereo not shown) [Compound 79]: the EC50 in the assay on Z-138 cell line was 101 to 1000 nM; in assay [1], < 100 nM.
Consider `O=C(NC[C@H](O)CN1CCc2ccccc2C1)c1cccc(NC2CCOC2)c1` (stereo partly shown) [Compound 80], for which the EC50 with Z-138 cell line was 101 to 1000 nM; in assay [1] it was < 100 nM.
The matching figures for `O=C(NC[C@@H](O)CN1CCc2ccccc2C1)c1cccc(NC2CCOC2)c1` (stereo partly shown) [Compound 81]: 1000 to 10000 nM and 101 to 1000 nM.
For `O=C(NC[C@H](O)CN1CCc2ccccc2C1)c1cccc(OC2CCOCC2)c1` [Compound 82] the same measures were 101 to 1000 nM and < 100 nM.
The matching figures for `Cc1ccc2cc(C(=O)NCC(O)CN3CCc4ccccc4C3)ccc2n1` (stereo not shown) [Compound 84, N-(3-(3,4-dihydroisoquinolin-2(1H)-yl)-2-hydroxypropyl)-2-methylquinoline-6-carboxamide]: 1000 to 10000 nM and < 100 nM.
As to `O=C(NCC(O)CN1CCc2ccccc2C1)c1ccc2nccnc2c1` (stereo not shown) [Compound 85], the EC50 fell in the range of 10000 to 50000 nM with Z-138 cell line and 101 to 1000 nM in assay [1].
For `O=C(NCC(O)CN1CCc2ccccc2C1)c1ccc2c(c1)OCCN2` (stereo not shown) [Compound 88] the same measures were > 20000 nM and 101 to 1000 nM.
The matching figures for `O=C1COc2cc(C(=O)NCC(O)CN3CCc4ccccc4C3)ccc2N1` (stereo not shown) [Compound 89]: > 20000 nM and 101 to 1000 nM.
The matching figures for `CCN1CCN(Cc2cccc(C(=O)NCC(O)CN3CCc4ccccc4C3)c2)CC1` (stereo not shown) [Compound 90]: 10000 to 50000 nM and 101 to 1000 nM.
For `CS(=O)(=O)N1CCN(Cc2cccc(C(=O)NCC(O)CN3CCc4ccccc4C3)c2)CC1` (stereo not shown) [Compound 91], the values for the EC50 (with Z-138 cell line; in assay [1]) were 1000 to 10000 nM and < 100 nM, respectively.
The matching figures for `O=C(NCC(O)CN1CCc2ccccc2C1)c1cccc(CN2CCN(CC(F)(F)F)CC2)c1` (stereo not shown) [Compound 92]: 1000 to 10000 nM and < 100 nM.
Consider `O=C(NCC(O)CN1CCc2ccccc2C1)c1cccc(NC2CCNC2)c1` (stereo not shown) [Compound 93], for which the EC50 in the assay with Z-138 cell line is > 20000 nM; in assay [1], 1000 to 10000 nM.
As for `O=C(NCC(O)CN1CCc2ccccc2C1)c1cccc(NC2CCNCC2)c1` (stereo not shown) [Compound 94], the figures for the EC50 (in the assay with Z-138 cell line; in assay [1]) were 10000 to 50000 nM and 101 to 1000 nM, respectively.
Turning to `Cc1ccc(NC2CCOCC2)cc1C(=O)NCC(O)CN1CCc2ccccc2C1` (stereo not shown) [Compound 95], the EC50 lay in the range of 1000 to 10000 nM in the assay on Z-138 cell line and 101 to 1000 nM in assay [1].
For `Cc1ccc(NC2CCOC2)cc1C(=O)NCC(O)CN1CCc2ccccc2C1` (stereo not shown) [Compound 96] the same measures were 1000 to 10000 nM and < 100 nM.
For `Cc1ccc(NC2COC2)cc1C(=O)NCC(O)CN1CCc2ccccc2C1` (stereo not shown) [Compound 97] the same measures were 1000 to 10000 nM and < 100 nM.
For `O=C(NCC(O)CN1CCc2ccccc2C1)c1cccc(NC2CCOCC2O)c1` (stereo not shown) [Compound 98] the same measures were 1000 to 10000 nM and 101 to 1000 nM.
Take `O=C(NCC(O)CN1CCc2ccccc2C1)c1cccc(C2CCOCC2)c1` (stereo not shown) [Compound 99]: the figures for the EC50 (with Z-138 cell line; in assay [1]) were 1000 to 10000 nM and < 100 nM, respectively.
Take `CC(=O)N1CCN(Cc2cccc(C(=O)NCC(O)CN3CCc4ccccc4C3)c2)CC1` (stereo not shown) [Compound 100]: the EC50 was 1000 to 10000 nM in the assay on Z-138 cell line and < 100 nM in assay [1].
For `CC(C)N1CCC(Nc2cccc(C(=O)NCC(O)CN3CCc4ccccc4C3)c2)C1` (stereo not shown) [Compound 101] the same measures were 10000 to 50000 nM and < 100 nM.
For `O=C(NCC(O)CN1CCc2ccccc2C1)c1cccc(NC2CCN(CC(F)(F)F)C2)c1` (stereo not shown) [Compound 102] the same measures were 1000 to 10000 nM and < 100 nM.
With `CC(C)N1CCC(Nc2cccc(C(=O)NCC(O)CN3CCc4ccccc4C3)c2)CC1` (stereo not shown) [Compound 103], the EC50 in the assay on Z-138 cell line is 10000 to 50000 nM; in assay [1], < 100 nM.
